Data reported in US20100298141A1, “SUBSTITUTED PYRIDINE N-OXIDE HERBICIDES” (E. I. DU PONT DE NEMOURS AND COMPANY, priority 2007, published 2010).

Key:
catchweed bedstraw = test: Test C pre-/postemergence test; assay type: in vivo, Galium aparine
Description: (§1) Seeds of plant species selected from blackgrass (Alopecurus myosuroides), downy brome (Bromus tectorum), green foxtail (Setaria viridis), Italian ryegrass (Lolium multiflorum), wheat (Triticum aestivum), wild oat (Avena fatua), catchweed bedstraw (Galium aparine), Russian thistle (Salsola kali), […] (Cynodon dactylon), Surinam grass (Brachiaria decumbens), cocklebur (Xanthium strumarium), corn (Zea mays), crabgrass (Digitaria sanguinalis), woolly cupgrass (Eriochloa villosa), giant foxtail (Setaria faberii), Goosegrass (Eleusin indica), johnsongrass (Sorghum halepense), kochia (Kochia scoparia), lambsquarters (Chenopodium album), morningglory (Ipomoea coccinea), eastern black nightshade (Solanum ptycanthum), yellow nutsedge (Cyperus esculentus), pigweed (Amaranthus retroflexus), common ragweed (Ambrosia elation), soybean (Glycine max), common (oilseed) sunflower (Helianthus annuus), and velvetleaf (Abutilon theophrasti) were planted and treated preemergence with test chemicals formulated in a non-phytotoxic solvent mixture which included a surfactant. At the same time, plants selected from these crop and weed species and also winter barley (Hordeum vulgare), canarygrass (Phalaris minor), and chickweed (Stellaria media) were treated with postemergence applications of some of the test chemicals formulated in the same manner. Plants ranged in height from 2 to 18 cm (1- to 4-leaf stage) for postemergence treatments. […] At time of treatment, test pots were flooded to 3 cm above the soil surface, treated by application of test compounds directly to the paddy water, and then maintained at that water depth for the duration of the test. […] A dash (-) response means no test result.

downy brome = test: Test C pre-/postemergence test; assay type: in vivo, Bromus tectorum
Description: as §1

crabgrass = test: Test A pre-/postemergence greenhouse test; assay type: in vivo, Digitaria sanguinalis; conditions: for Crabgrass, Large plant response rating: 0 to 100 scale; for Plant response rating, Crabgrass, Large: 0 to 100 scale where 0 is no effect and 100 is complete control
How it was run: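 Greenhouse herbicide screen, pre- and postemergence in parallel. Soil: loam plus sand. Formulation: non-phytotoxic solvent mix with surfactant. Postemergence stage: one to two leaves, 2–10 cm height. Evaluation: visual injury, compared with untreated controls, about 10 days after treatment.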

[1] = 31 g ai/ha, Preemergence, scale 0 to 100
[2] = 62 g ai/ha, preemergence, scale 0 (no effect) to 100 (complete control)
[3] = preemergence, 125 g ai/ha, scale 0 (no effect) to 100 (complete control)
[4] = Postemergence, 125 g ai/ha, 0 is no effect, 100 is complete control
[5] = Postemergence, 500 g ai/ha, 0 is no effect, 100 is complete control
[6] = Preemergence, 125 g ai/ha, 0 no effect, 100 complete control
[7] = Postemergence, 62 g ai/ha, scale 0 to 100, 0 no effect, 100 complete control
[8] = Postemergence, 125 g ai/ha, scale 0 to 100, 0 no effect, 100 complete control
[9] = Postemergence, 250 g ai/ha, scale 0 to 100, 0 no effect, 100 complete control
[10] = 62 g ai/ha, Preemergence, scale 0 to 100
[11] = 125 g ai/ha, preemergence, scale 0 (no effect) to 100 (complete control)
[12] = Preemergence, 31 g ai/ha, scale 0 to 100 (0 no effect, 100 complete control)
[13] = preemergence, 250 g ai/ha, scale 0 (no effect) to 100 (complete control)

Compound	Galium plant response rating (catchweed bedstraw; [1])	Galium plant response rating (catchweed bedstraw; [2])	Plant response rating (0 to 100), Galium (catchweed bedstraw; Preemergence, 250 g ai/ha)	Galium plant response rating (catchweed bedstraw; [3])	Bromegrass, Downy plant response rating (downy brome; [1])	Bromegrass, Downy plant response rating (downy brome; [2])	Plant response rating (0 to 100), Bromegrass, Downy (downy brome; Preemergence, 250 g ai/ha)	Bromegrass, Downy plant response rating (downy brome; [3])	Crabgrass, Large plant response rating (crabgrass; [4])	Crabgrass, Large plant response rating (crabgrass; [5])	Crabgrass, Large plant response rating (crabgrass; [6])	Plant response rating, Crabgrass, Large (crabgrass; Preemergence, 500 g ai/ha)	Bromegrass, Downy plant response rating (downy brome; [10])	Bromegrass, Downy plant response rating (downy brome; [11])	Plant response rating, Bromegrass, Downy (downy brome; [12])	Bromegrass, Downy plant response rating (downy brome; [13])	Plant response rating, Crabgrass, Large (crabgrass; Postemergence, 125 g ai/ha)	further results
Cn1nc(C(F)(F)F)c(CS(=O)(=O)c2ccc(Cl)c[n+]2[O-])c1OC(F)F [Compound 7]	40	85	95	90	0	0	0	0	70	80	90	90						
Cn1nc(C(F)(F)F)c(C[S+]([O-])c2ccc(Br)c[n+]2[O-])c1OC(F)F (racemic) [Compound 16]	0	100	100	100	20	50	60	55	70	90	80	100						
CC(c1c(C(F)(F)F)nn(C)c1Cl)S(=O)(=O)c1ccc(Cl)c[n+]1[O-] (racemic) [Compound 40]									80	80	60	90						Plant response rating (0 to 100), Bromegrass, Downy (downy brome; Postemergence, 31 g ai/ha): 0; Plant response rating, Bromegrass, Downy (downy brome; [7]): 0; Plant response rating, Bromegrass, Downy (downy brome; [8]): 0; Plant response rating, Bromegrass, Downy (downy brome; [9]): 0
Cn1nc(C(F)(F)F)c(CS(=O)(=O)c2cccc[n+]2[O-])c1OCC(F)F [Compound 81]										70	80	100	40	100	40	100	50	
CCc1cc[n+]([O-])c([S+]([O-])Cc2c(C(F)(F)F)nn(C)c2OCC(F)(F)F)c1 (centres unmarked) [Compound 59]										90	90	100	40	90	20	100	50	Galium plant response rating (catchweed bedstraw; [10]): 100; Galium plant response rating (catchweed bedstraw; [11]): 100; Plant response rating, Galium (catchweed bedstraw; [12]): 0; Galium plant response rating (catchweed bedstraw; [13]): 100
CC(c1c(C(F)(F)F)nn(C)c1Cl)S(=O)(=O)c1cccc[n+]1[O-] (centres unmarked) [Compound 10]	0	50	100	100	0	0	70	10	80	90	90	100						
Cn1nc(C(F)(F)F)c(CS(=O)(=O)c2ccc(Cl)c[n+]2[O-])c1OCC(F)(F)F [Compound 73]										80	70	90	60	60	0	100	60	
Cn1nc(C(F)(F)F)c(C[S+]([O-])c2cccc[n+]2[O-])c1OCC(F)(F)C(F)(F)F (centres unmarked) [Compound 78]										80	30	100					70	Plant response rating (0 to 100), Bromegrass, Downy (downy brome; Postemergence, 31 g ai/ha): 0; Plant response rating, Bromegrass, Downy (downy brome; [7]): 0; Plant response rating, Bromegrass, Downy (downy brome; [8]): 0; Plant response rating, Bromegrass, Downy (downy brome; [9]): 0
